Measurements reported in ChEMBL document CHEMBL1127971, “Novel conformationally constrained HIV-1 protease inhibitors: rational design, enzyme inhibition, and X-ray structure of an enzyme-inhibtor complex” (Bioorg Med Chem Lett, 1994).

Biological target: Human immunodeficiency virus type 1 protease (Human immunodeficiency virus 1, UniProt Q72874)
Experiment: Inhibition of human immunodeficiency virus type 1 (HIV-1) protease

Row | Compound | IC50 [µM]
1 | CC(C)[C@H](NC(=O)OCc1ccccc1)C(=O)N[C@@H](Cc1ccccc1)[C@]1(O)CCN([C@@H](Cc2ccccc2)C(=O)N[C@H]2c3ccccc3C[C@H]2O)C1 | 0.22
2 | CC(C)(C)NC(=O)[C@H](CC1CCCCC1)N1CC[C@@](O)([C@H](Cc2ccccc2)NC(=O)OC(C)(C)C)C1 | 37
3 | CC(C)(C)OC(=O)N[C@@H](Cc1ccccc1)[C@]1(O)CCCN([C@@H](Cc2ccccc2)C(=O)N[C@H]2c3ccccc3C[C@H]2O)C1 | > 100
4 | CC(C)C[C@@H](C(=O)NC(C)(C)C)N1CCC[C@@](O)([C@H](Cc2ccccc2)NC(=O)OC(C)(C)C)C1 | > 100
5 | CC(C)(C)NC(=O)[C@H](CC1CCCCC1)N1CCC[C@](O)([C@H](Cc2ccccc2)NC(=O)OC(C)(C)C)C1 | > 100
6 | CC(C)(C)OC(=O)N[C@@H](Cc1ccccc1)C1(O)CCN([C@@H](Cc2ccccc2)C(=O)N[C@H]2c3ccccc3C[C@H]2O)CC1 | 1.46
7 | CC(C)(C)OC(=O)N[C@@H](Cc1ccccc1)[C@@]1(O)CCN([C@@H](Cc2ccccc2)C(=O)N[C@H]2c3ccccc3C[C@H]2O)C1 | 6
8 | CC(C)(C)OC(=O)N[C@@H](Cc1ccccc1)[C@]1(O)CCN([C@@H](Cc2ccccc2)C(=O)N[C@H]2c3ccccc3C[C@H]2O)C1 | 0.6
9 | CC(C)C[C@@H](C(=O)NC(C)(C)C)N1CCC(O)([C@H](Cc2ccccc2)NC(=O)[C@@H](NC(=O)OCc2ccccc2)C(C)C)CC1 | 26.7
10 | O=C(N[C@@H](Cc1ccccc1)C1(O)CCN([C@@H](Cc2ccccc2)C(=O)N[C@H]2c3ccccc3C[C@H]2O)CC1)O[C@H]1CCOC1 | 29.7
11 | CC(C)[C@H](NC(=O)OCc1ccccc1)C(=O)N[C@@H](Cc1ccccc1)C1(O)CCN(CCc2ccccc2)CC1 | 38.7
12 | CC(C)(C)NC(=O)[C@H](CC1CCCCC1)N1CCC(O)([C@H](Cc2ccccc2)NC(=O)OC(C)(C)C)CC1 | > 100
